The record followed here is ChEMBL document CHEMBL1145212, “Fluorinated diaryl sulfides as serotonin transporter ligands: synthesis, structure-activity relationship study, and in vivo evaluation of fluorine-18-labeled compounds as PET imaging agents” (J Med Chem, 2005).

This assay deals with Sodium-dependent serotonin transporter (Homo sapiens, UniProt P31645). As to the kind of experiment: In vitro displacement of [3H]paroxetine from human serotonin transporter expressed in HEK293 cells. Type of assay: cell-based. On the technique in general: In a radioligand displacement assay an active substance lowers the binding of a labelled ligand.
Chain of Sodium-dependent serotonin transporter (P31645 whole entry): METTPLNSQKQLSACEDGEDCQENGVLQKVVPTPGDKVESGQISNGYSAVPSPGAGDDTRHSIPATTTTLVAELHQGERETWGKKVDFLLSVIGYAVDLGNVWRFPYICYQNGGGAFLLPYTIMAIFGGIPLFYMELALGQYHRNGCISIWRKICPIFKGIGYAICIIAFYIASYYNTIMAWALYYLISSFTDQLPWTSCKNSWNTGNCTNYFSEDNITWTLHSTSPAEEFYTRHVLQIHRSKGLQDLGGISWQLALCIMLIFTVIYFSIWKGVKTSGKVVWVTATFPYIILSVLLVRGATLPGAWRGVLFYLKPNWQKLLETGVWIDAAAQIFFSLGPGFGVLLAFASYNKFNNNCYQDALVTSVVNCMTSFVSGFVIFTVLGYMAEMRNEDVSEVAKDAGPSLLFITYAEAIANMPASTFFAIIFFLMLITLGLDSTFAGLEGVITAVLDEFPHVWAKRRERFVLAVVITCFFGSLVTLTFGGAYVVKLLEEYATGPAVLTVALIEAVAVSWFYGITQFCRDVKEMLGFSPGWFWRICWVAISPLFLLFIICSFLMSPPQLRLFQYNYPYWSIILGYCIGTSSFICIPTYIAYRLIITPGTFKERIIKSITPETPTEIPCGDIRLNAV

A word on the Ki: it is the dissociation constant of the complex between target and ligand, obtained from inhibition or displacement. In the case of `CN(C)Cc1ccccc1Sc1ccc(C#N)cc1N` [DASB], the inhibition constant (Ki) was found to be 1.12 nM.
